In ChEMBL document CHEMBL1201862, “PubChem BioAssay data set” (2004):
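Step 1: Grow cells in 96-well plates. Step 2: Expose to compound for 48 hours at 5 concentrations. Step 3: Interpolate endpoints linearly; if unreached, use highest concentration. GI50: concentration for 50% inhibition of growth.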 The source made the active and inactive calls. Cut-off read from the data, not from the text of the source: active = GI50 up to about 1.1 µM and inactive = higher.

Columns and labels:
Experiment in all cases: NCI-60 cell line screen, 48 h
DLD-1 = tested on: DLD-1
COLO 205 = tested on: COLO 205
KM12 = tested on: KM12
KM-20L2 = tested on: KM-20L2
LOX IMVI = tested on: LOX IMVI
LXFL 529 = tested on: LXFL 529
HOP-92 = tested on: HOP-92
SNB-78 = tested on: SNB-78
CCRF-CEM = tested on: CCRF-CEM
A549 = tested on: A549
IGROV-1 = tested on: IGROV-1
HT-29 = tested on: HT-29
UACC-257 = tested on: UACC-257
OVCAR-3 = tested on: OVCAR-3
NCI-H522 = tested on: NCI-H522
U-251 = tested on: U-251
SNB-75 = tested on: SNB-75
HL-60 = tested on: HL-60
RPMI-8226 = tested on: RPMI-8226
SW-620 = tested on: SW-620
M19-MEL = tested on: M19-MEL
HOP-18 = tested on: HOP-18
HOP-62 = tested on: HOP-62
NCI-H23 = tested on: NCI-H23
K562 = tested on: K562
RXF 631 = tested on: RXF 631
CAKI-1 = tested on: CAKI-1
RXF 393 = tested on: RXF 393
SR = tested on: SR
SK-MEL-28 = tested on: SK-MEL-28
SF-295 = tested on: SF-295
786-0 = tested on: 786-0
OVCAR-5 = tested on: OVCAR-5
HCT-15 = tested on: HCT-15
M14 = tested on: M14
SNB-19 = tested on: SNB-19
HCC 2998 = tested on: HCC 2998
SN12C = tested on: SN12C
DMS-114 = tested on: DMS-114
SF-539 = tested on: SF-539
ACHN = tested on: ACHN
NCI-H460 = tested on: NCI-H460
TK-10 = tested on: TK-10
NCI-H226 = tested on: NCI-H226
OVCAR-4 = tested on: OVCAR-4
HCT-116 = tested on: HCT-116
Malme-3M = tested on: Malme-3M
UO-31 = tested on: UO-31
OVCAR-8 = tested on: OVCAR-8
SK-MEL-5 = tested on: SK-MEL-5
SK-MEL-2 = tested on: SK-MEL-2
SF-268 = tested on: SF-268
EKVX = tested on: EKVX
MOLT-4 = tested on: MOLT-4
XF498 = tested on: XF498
A498 = tested on: A498
DMS-273 = tested on: DMS-273
UACC-62 = tested on: UACC-62
SK-OV-3 = tested on: SK-OV-3

CCOc1cc2c[n+](C)c3c4cc(OC)c(OC)cc4ccc3c2cc1OC
GI50 (DLD-1): > 100 µM (inactive)
GI50 (COLO 205): > 100 µM (inactive)
GI50 (KM12): > 100 µM (inactive)
GI50 (KM-20L2): > 100 µM (inactive)
GI50 (LOX IMVI): > 100 µM (inactive)
GI50 (LXFL 529): > 100 µM (inactive)
GI50 (HOP-92): > 100 µM (inactive)
GI50 (SNB-78): > 100 µM (inactive)
GI50 (CCRF-CEM): 20.8 µM (inactive)
GI50 (A549): > 100 µM (inactive)
GI50 (IGROV-1): > 100 µM (inactive)
GI50 (HT-29): 13.6 µM (inactive)
GI50 (UACC-257): > 100 µM (inactive)
GI50 (OVCAR-3): > 100 µM (inactive)
GI50 (NCI-H522): > 100 µM (inactive)
GI50 (U-251): > 100 µM (inactive)
GI50 (SNB-75): > 100 µM (inactive)
GI50 (HL-60): 97.5 µM (inactive)
GI50 (RPMI-8226): > 100 µM (inactive)
GI50 (SW-620): > 100 µM (inactive)
GI50 (M19-MEL): > 100 µM (inactive)
GI50 (HOP-18): 60.8 µM (inactive)
GI50 (HOP-62): > 100 µM (inactive)
GI50 (NCI-H23): > 100 µM (inactive)
GI50 (K562): > 100 µM (inactive)
GI50 (RXF 631): 4.07 µM (inactive)
GI50 (CAKI-1): > 100 µM (inactive)
GI50 (RXF 393): > 100 µM (inactive)
GI50 (SR): 20.4 µM (inactive)
GI50 (SK-MEL-28): > 100 µM (inactive)
GI50 (SF-295): > 100 µM (inactive)
GI50 (786-0): 17.7 µM (inactive)
GI50 (OVCAR-5): > 100 µM (inactive)
GI50 (HCT-15): > 100 µM
GI50 (M14): > 100 µM (inactive)
GI50 (SNB-19): > 100 µM (inactive)
GI50 (HCC 2998): > 100 µM (inactive)
GI50 (SN12C): > 100 µM (inactive)
GI50 (DMS-114): > 100 µM (inactive)
GI50 (SF-539): > 100 µM (inactive)
GI50 (ACHN): > 100 µM (inactive)
GI50 (NCI-H460): > 100 µM (inactive)
GI50 (TK-10): > 100 µM (inactive)
GI50 (NCI-H226): > 100 µM (inactive)
GI50 (OVCAR-4): > 100 µM (inactive)
GI50 (HCT-116): > 100 µM (inactive)
GI50 (Malme-3M): > 100 µM (inactive)
GI50 (UO-31): > 100 µM (inactive)
GI50 (OVCAR-8): 17.7 µM (inactive)
GI50 (SK-MEL-5): > 100 µM (inactive)
GI50 (SK-MEL-2): > 100 µM (inactive)
GI50 (SF-268): > 100 µM (inactive)
GI50 (EKVX): > 100 µM (inactive)
GI50 (MOLT-4): > 100 µM (inactive)

COc1ccc([C@@H]2OC(=O)C3C2C(=O)O[C@H]3c2ccc(OC)c(OC)c2)cc1OC (stereo partly drawn)
GI50 (XF498): > 100 µM (inactive)
GI50 (COLO 205): > 100 µM (inactive)
GI50 (KM12): > 100 µM (inactive)
GI50 (KM-20L2): > 100 µM (inactive)
GI50 (A498): > 100 µM (inactive)
GI50 (LOX IMVI): > 100 µM (inactive)
GI50 (HOP-92): > 100 µM (inactive)
GI50 (SNB-78): > 100 µM (inactive)
GI50 (DMS-273): > 100 µM (inactive)
GI50 (CCRF-CEM): > 100 µM (inactive)
GI50 (A549): > 100 µM (inactive)
GI50 (IGROV-1): > 100 µM (inactive)
GI50 (HT-29): > 100 µM (inactive)
GI50 (UACC-257): > 100 µM (inactive)
GI50 (OVCAR-3): > 100 µM (inactive)
GI50 (NCI-H522): > 100 µM (inactive)
GI50 (U-251): > 100 µM (inactive)
GI50 (SNB-75): 81.5 µM (inactive)
GI50 (HL-60): > 100 µM (inactive)
GI50 (RPMI-8226): > 100 µM (inactive)
GI50 (SW-620): > 100 µM (inactive)
GI50 (M19-MEL): > 100 µM (inactive)
GI50 (HOP-18): > 100 µM (inactive)
GI50 (HOP-62): > 100 µM (inactive)
GI50 (NCI-H23): > 100 µM (inactive)
GI50 (K562): > 100 µM (inactive)
GI50 (RXF 631): > 100 µM (inactive)
GI50 (RXF 393): > 100 µM (inactive)
GI50 (SK-MEL-28): > 100 µM (inactive)
GI50 (SF-295): > 100 µM (inactive)
GI50 (786-0): > 100 µM (inactive)
GI50 (HCT-15): > 100 µM
GI50 (M14): > 100 µM (inactive)
GI50 (SNB-19): > 100 µM (inactive)
GI50 (HCC 2998): > 100 µM (inactive)
GI50 (SN12C): > 100 µM (inactive)
GI50 (DMS-114): > 100 µM (inactive)
GI50 (SF-539): > 100 µM (inactive)
GI50 (ACHN): > 100 µM (inactive)
GI50 (NCI-H460): > 100 µM (inactive)
GI50 (TK-10): > 100 µM (inactive)
GI50 (NCI-H226): > 100 µM (inactive)
GI50 (OVCAR-4): > 100 µM (inactive)
GI50 (HCT-116): > 100 µM (inactive)
GI50 (Malme-3M): > 100 µM (inactive)
GI50 (UO-31): > 100 µM (inactive)
GI50 (UACC-62): > 100 µM (inactive)
GI50 (OVCAR-8): > 100 µM (inactive)
GI50 (SK-MEL-5): > 100 µM (inactive)
GI50 (SK-MEL-2): > 100 µM (inactive)
GI50 (SK-OV-3): > 100 µM (inactive)
GI50 (SF-268): > 100 µM (inactive)
GI50 (EKVX): > 100 µM (inactive)
GI50 (MOLT-4): > 100 µM (inactive)
